Data set [1] has as its system DV (Dengue Virus). Briefly: Cytopathic Effect Assay (CPEA), Dengue virus in BHK cells. The class given is cell-based.
Data set [2] concerns DV (Dengue Virus). Nature of the data set: Yield Reduction Assay (YRA), Dengue virus in BHK cells. The class given is cell-based.
The subject of data set [3] is BVDV (Bovine Viral Diarrhea Virus). Nature of the data set: microbe, parasite or virus in culture. The class given is cell-based. To be noted: for inhibition of virus yield: 6-25 μg/ml, 24 and 48 hours post infection.
The nature of data set [4]: Cytotoxicity (CC50) in BND cells. The class given is cell-based, Bottle Nose Dolphin. The settings on record: bottlenose dolphin, BND skin cells.
Data set [5] relates to viral protein NS3. Nature of the data set: Western blot analysis of viral NS3 protein. It is filed as cell-based, Bovine Viral Diarrhea Virus. The settings on record: 25 μg/ml, 24 hours post infection, MOI of 10. On the procedure:
MDBK cells were infected with NADL strain of BVDV (MOI 10) in the presence or absence of 25 μg/ml of geneticin. Based on previous publications, the 18-24 h post-infection time point was chosen to determine viral proteins in infected cells. […] Thus, at 24 h post-infection, cell media was removed and cells were washed several times with PBS. Then, 2× concentrated electrophoresis sample buffer was added, cells were scraped from the dish and transferred to a microcentrifuge tube. To reduce viscosity, the samples were sonicated briefly or passed several times through a 26-gauge needle and boiled for 5 min. Fifteen micrograms of lysate sample were run on 10% SDS-PAGE and then transblotted. After blocking for 1 h in blocking buffer (5% dry milk in 0.05% Tween 20 in PBS), membranes were incubated with primary antibody (MAb 20.10.6) diluted 1:1,000 in blocking buffer for 60 min at room temperature and washed with 0.05% Tween 20 in PBS. After incubation with secondary antibody (anti-mouse IgG-HRP; Sigma) diluted 1:200 in blocking buffer for 60 min at room temperature, NS3 was detected with the Amersham ECL kit according to the manufacturer's instructions (Amersham Biosciences, Piscataway, N.J., USA).
(Immunoblotting shows a protein as a band on a membrane.)

The test system of data set [6] is BVDV (Bovine Viral Diarrhea Virus). Nature of the data set: Cytopathic Effect Assay (CPEA) / cell viability, BVDV in MDBK cells. The settings on record: for EC50: Bovine viral diarrhea virus isolates and strains, MDBK.
Data set [7] relates to YFV (Yellow Fever Virus). Nature of the data set: microbe, parasite or virus in culture. The class given is cell-based. To be noted: read-out: CPEA EC50.
The test system of data set [8] is MDBK (Madin-Darby Bovine Kidney) cells. Nature of the data set: Cytotoxicity / cell viability in MDBK cells. It is filed as cell-based.
Data set [9] can be described thus: Cytotoxicity / cell viability in MDBK cells. The class given is cell-based, Bovine. To be noted: bovine, MDBK cells.
The test system of data set [10] is YFV (Yellow Fever Virus). Briefly: microbe, parasite or virus in culture. It is filed as cell-based. The settings on record: read-out: YRA EC50.
Data set [11] in a line: Cytotoxicity (CC50) in BHK cells. It is filed as cell-based. The settings on record: hamster.
The test system of data set [12] is BVDV (Bovine Viral Diarrhea Virus). Briefly: Cytopathic Effect Assay (CPEA), BVDV in BND cells. It is filed as cell-based. To be noted: Bovine viral diarrhea virus isolates and strains. In general terms: Damage to the host cells serves as the signal in cytopathic effect assays.
Data set [13] relates to BVDV. Nature of the data set: Antiviral activity against BVDV (structure-function analysis). It is filed as cell-based, Bovine Viral Diarrhea Virus.

In brackets after ≈: the same amount, converted by molar mass. Read-outs that look alike come from different tables or passages of the source. Bounds are passed on as bounds.

A word on the CC50: it is the concentration at which the toxic effect on the cells reaches its halfway point. High values mean better tolerance by the cells, low ones harm at low concentration. With `CN[C@@H]1[C@@H](O)[C@@H](O[C@@H]2[C@@H](O)[C@H](O[C@H]3O[C@H]([C@@H](C)O)[C@@H](O)[C@H](O)[C@H]3N)[C@@H](N)C[C@H]2N)OC[C@]1(C)O` [Geneticin], the EC50 in data set [1] is 4 µg/mL (≈ 8.06 µM); in data set [2] it was 5 µg/mL (≈ 10.1 µM); in data set [3] (Bovine viral diarrhea virus isolates and strains, MDBK, BVDV, MDBK cells, read-out: YRA EC50) it was roughly 4 µg/mL (≈ 8.06 µM); in [6] (read-out: CPEA EC50, BVDV, MDBK cells) it was roughly 4 µg/mL (≈ 8.06 µM); in [6] (read-out: EC50 concentration for antiBVDV activity, BVDV), 4 µg/mL (≈ 8.06 µM); in data set [7] it was 20 µg/mL (≈ 40.3 µM). The EC50 in data set [10] came out at 10 µg/mL (≈ 20.1 µM); in data set [12] it was 50 µg/mL (≈ 101 µM). Further, the viral production result in data set [3] is given as “below 10 % of control”. In addition, the “inhibition of virus yield” value in data set [3] (NADL strain) and in data set [3] (NY-1 strain) was 10-100 fold in each case. For the same compound, the CC50 in data set [4] is greater than 2000 µg/mL; in [9], 400 µg/mL (≈ 806 µM); in data set [11] it was 160 µg/mL (≈ 322 µM). In addition, in data set [5], the “synthesis of the viral protein NS3” value is “no effect”. Moreover, the “MDBK cell viability (uninfected)” value in [8] (31-250 μg/ml, 72 hours) was “no effect”. Moreover, the “concentration with cell toxicity (downward curve of cell viability)” value in data set [8] (high doses) is listed as “above 400 μg/ml”.
Turning to `CC(=O)O[C@H]1C[C@@]2(C)[C@@H](C[C@@H](O)[C@H]3[C@@]4(C)CC[C@@H](O)[C@@H](C)[C@@H]4CC[C@@]32C)/C1=C(\CCC=C(C)C)C(=O)O` [fusidic acid], the “antiviral activity against BVDV” value in data set [13] was “inactive”.
For the compound `NC[C@@H]1O[C@H](O[C@H]2[C@@H](O)[C@H](O[C@@H]3[C@@H](O)[C@H](N)C[C@H](N)[C@H]3O[C@H]3O[C@H](CO)[C@@H](O)[C@H](O)[C@H]3N)O[C@@H]2CO)[C@H](N)[C@@H](O)[C@@H]1O` [paromomycin], the “antiviral activity against BVDV” value in data set [13] was “no antiviral activity”.
With gentamicin, the “cell viability of cpBVDV-infected cells (cytoprotection against NADL)” value in data set [6] (NADL, MDBK cells, 12 μg/ml per drug) is on record as “decreased the cell viability”.

These data come from patent US20090010880A1 (priority 2007, published 2009).
